Laboratory results from ChEMBL document CHEMBL1150076, “Effects of various isoquinoline alkaloids on in vitro 3H-dopamine uptake by rat striatal synaptosomes” (J Nat Prod, 1995).

Target: Sodium-dependent dopamine transporter (Rattus norvegicus, UniProt P23977)
Assay type: subcellular, Wistar, Brain, Synaptosomes

Chain of Sodium-dependent dopamine transporter (P23977 whole entry): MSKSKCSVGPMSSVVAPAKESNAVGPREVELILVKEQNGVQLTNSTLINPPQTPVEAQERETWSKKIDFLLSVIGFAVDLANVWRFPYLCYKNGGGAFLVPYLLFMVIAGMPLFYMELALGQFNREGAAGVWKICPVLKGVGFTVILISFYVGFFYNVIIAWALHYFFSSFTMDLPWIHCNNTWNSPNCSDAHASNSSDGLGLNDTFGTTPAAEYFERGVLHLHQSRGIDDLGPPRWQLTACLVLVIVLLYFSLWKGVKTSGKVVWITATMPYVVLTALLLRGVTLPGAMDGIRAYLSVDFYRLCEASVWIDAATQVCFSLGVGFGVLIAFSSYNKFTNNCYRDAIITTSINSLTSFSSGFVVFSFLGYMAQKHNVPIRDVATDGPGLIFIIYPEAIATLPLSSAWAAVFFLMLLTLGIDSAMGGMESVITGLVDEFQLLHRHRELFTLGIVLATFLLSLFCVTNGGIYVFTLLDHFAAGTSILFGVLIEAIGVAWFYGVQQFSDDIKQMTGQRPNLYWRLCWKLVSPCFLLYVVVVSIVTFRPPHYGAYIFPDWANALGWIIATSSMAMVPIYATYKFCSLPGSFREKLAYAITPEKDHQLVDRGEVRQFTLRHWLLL

Row | SMILES | IC50 [µM]
1 | COc1cccc2c1-c1c3c(cc4c1[C@@H](C2)N(C)CC4)OCO3 | 31.8
2 | COc1ccc2c(c1)c(C)c1c3c(cc4c(c32)OCO4)CCN1C | 46.6
3 | COc1cc2c(cc1OC)[C@@H](Cc1ccc(Oc3cc(C[C@@H]4c5cc(OC)c(OC)cc5CCN4C)ccc3OC)cc1)N(C)CC2 | 5.8
4 | COc1c(O)c2c3c(c1OC)CCN(C)[C@@H]3Cc1ccccc1-2 | 46.4
5 | O=C(O)CCCCCCNC1c2ccccc2CCc2ccccc21 [AMINEPTINE] | 1
6 | Oc1ccc2c(c1)C[C@H]1NCCc3cc4c(c-2c31)OCO4 [ANOLOBINE] | 8.1
7 | c1ccc2c(c1)C[C@H]1NCCc3cc4c(c-2c31)OCO4 [ANONAINE] | 0.8
8 | COc1cc2c3cc1Oc1c(O)c(OC)cc4c1[C@H](Cc1ccc(OC)c(c1)-c1cc(ccc1O)C[C@H]3N(C)CC2)N(C)CC4 [ANTIOQUINE] | 3.4
9 | Cc1c2c3c(cc4c(c3c3ccc(O)cc13)OCO4)CCN2C [BELEMINE] | 61.4
10 | COc1cc2c(cc1O)C[C@H]1c3c(ccc(O)c3O2)CCN1C [BREOGANINE] | 56.5
11 | COc1cc2c(cc1O)Oc1c(O)ccc3c1[C@H](C2)N(C)CC3 [CELTISINE] | > 100
12 | COc1ccc2c(c1O)Oc1c(O)ccc3c1[C@H](C2)N(C)CC3 [CLAVICULINE] | > 100
13 | COc1cc2c(cc1OC)Oc1c(O)ccc3c1[C@H](C2)N(C)CC3 [CULARIDINE] | 41.2
14 | COc1cc2c(cc1OC)[C@@H](Cc1ccc(Oc3cc(C[C@H]4c5cc(OC)c(OC)cc5CCN4C)ccc3OC)cc1)N(C)CC2 [DIMETHYLGRISABINE] | 1.1
15 | COc1cc2c3cc1Oc1c(OC)c(OC)cc4c1[C@@H](C(=O)c1ccc(OC)c(c1)-c1cc(ccc1OC)C[C@H]3N(C)CC2)N(C)CC4 [DIMETHYLPSEUDOXANDRINE] | 20.1
16 | COc1cc2c3c(c(-c4c5c6c(cc7c(c6c6ccccc46)OCO7)CCN5)c4ccccc4c3c1OC)NCC2 [HETEROPSINE] | > 100
17 | COc1ccc2cc1Oc1ccc(cc1)C[C@H]1c3c(cc(OC)c(O)c3Oc3cc4c(cc3OC)CCN(C)[C@@H]4C2)CCN1C [HOMOAROMOLINE] | 10.9
18 | COc1cc(C[C@H]2c3c(ccc(OC)c3O)CCN2C)ccc1O [ISOCRASSIFOLINE] | 36.2
19 | COc1c(O)c2c3c(c1OC)CCN[C@@H]3Cc1ccccc1-2 [ISOPILINE] | 2.5

Row | SMILES | IC50 [µM]
20 | COc1ccc2cc1Oc1ccc(cc1)C[C@@H]1c3cc(c(OC)cc3CCN1C)Oc1c(OC)c(OC)cc3c1[C@H](C2)N(C)CC3 [ISOTETRANDRINE] | 4.2
21 | COc1cc2c(cc1O)[C@H](Cc1ccc(O)cc1)NCC2 [L-COCLAURINE] | 14.1
22 | O=C1c2ccccc2-c2c3c(cc4ccnc1c24)OCO3 [LIRIODENINE] | 31.2
23 | COc1cc2ccnc3c2c(c1OC)-c1ccccc1C3=O [LYSICAMINE] | > 100
24 | COc1c(O)c2c3c(nccc3c1OC)C(C)(C)c1cc(O)ccc1-2 [MELOSMINE] | 23.6
25 | COc1cc2c(cc1OC)[C@H](Cc1ccc(O)cc1)NCC2 [NORARMEPAVINE] | 37
26 | COc1cc2c(cc1O)C[C@@H]1NCCc3cc(O)c(OC)c-2c31 [NORBOLDINE] | 16.5
27 | COc1c2c3c(c4c1OCO4)-c1ccccc1C[C@H]3NCC2 [NORSTEPHALAGINE] | 1.4
28 | COc1ccc2cc1Oc1ccc(cc1)C[C@H]1c3c(cc(OC)c(OC)c3Oc3cc4c(cc3OC)CCN(C)[C@@H]4C2)CCN1C [OBABERINE] | 3.9
29 | COc1cc2c(cc1OC)C(=O)c1nccc3ccc(OC)c(c13)O2 [OXOCULARINE] | > 100
30 | COc1ccc2c(c1OC)Oc1c(O)ccc3ccnc(c13)C2 [OXOSARCOPHYLLINE] | > 100
31 | COc1cc2c(cc1OC)[C@@H](Cc1ccc(OC)c(Oc3ccc(C[C@H]4NCCc5cc(OC)c(OC)cc54)cc3)c1)N(C)CC2 [PAMPULHAMINE] | 84.2
32 | COc1ccc2c(c1O)Oc1c(OC)ccc3c1[C@H](C2)N(C)CC3 [SARCOCAPNIDINE] | 85.5
33 | COc1cc2c3c(c1OC)-c1c(ccc(O)c1O)C[C@H]3N(C)CC2 [SAUVEOLINE] | > 100
34 | COc1cc2c(cc1Oc1c(O)c(OC)cc3c1[C@H](Cc1ccc(OC)c(-c4cc(C=O)ccc4O)c1)N(C)CC3)C(=O)N(C)CC2 [SECANTIOQUINE] | > 100
35 | COc1cc2c(cc1OC)Oc1c(O)ccc(CCN(C)C)c1C=C2 [SECOCULARIDINE] | 13.4
36 | COc1cc2c(cc1OC)Oc1c(OC)ccc(CCN(C)C)c1C=C2 [SECOCULARINE] | 28.2
37 | COc1ccc(C[C@H]2c3c(cc(OC)c4c3Oc3cc5c(cc3O4)CCN(C)C5=O)CCN2C)cc1-c1cc(C=O)ccc1O [SECOLUCIDINE] | > 100
